In article PMC10017042 (Science Advances, 2023):
Where “and” joins values, the source holds several entries; their conditions need not be identical. Identical values can stand only once. Like-named read-outs stand apart in the source and are kept apart here.

Experiments:
[1] = set-up: method as in PMID 22837004; settings: assumed for the sampling design; fasted first dose; cited from earlier work
BAF complex = BAF complex target gene expression (IL-10, SOCS3, CBX7; control B-ACT) by RT-qPCR in participants; type: in vivo, human
Description: We reasoned that the effect on the expression of these gene targets at later time points (days 14 and 42) would be less useful as specific biomarker of BAF complex inhibition due to treatment interruptions and potential induction via other pathways. […] These findings are consistent with, and might be the consequence of, the generally lower plasma pyrimethamine Ctrough in participants that received the combined intervention regimen compared to those that received solely pyrimethamine.
RT-qPCR reactions were conducted using GoTaq qPCR Master Mix (Promega) following the manufacturer’s protocol. The following thermal cycling protocol was used for amplification: 3 min at 95°C, followed by 40 cycles of 95°C for 10 s and 60°C for 30 s. Expression data were calculated using the 2^−∆∆Ct methodology ([73]). Cyclophilin A was used as a housekeeping gene for the analysis. The list of primers is available in table S9.

HIV-1 [2] = settings: for Change in inducible reservoir size: day 0 versus day 42; for TILDA reservoir, cells with multiply spliced HIV-RNA detectable per million CD4+ T-cells, >1year / TILDA reservoir, cells with multiply spliced HIV-RNA detectable per million CD4+ T-cells, Day 42 / TILDA reservoir, cells with multiply spliced HIV-RNA detectable per million CD4+ T-cells, Day 0, 0 hour: individual participants, one value each; for TILDA reservoir, cells with multiply spliced HIV-RNA detectable per million CD4+ T-cells, >1year: >1 year after end of treatment; for TILDA reservoir, cells with multiply spliced HIV-RNA detectable per million CD4+ T-cells, Day 0, 0 hour: pretreatment baseline
Procedure: Here, the measurement from the cells obtained >1 year after the last visit was used.
The frequency of CD4^+ T cells expressing MS HIV-1 RNA was determined using TILDA with some modifications to the protocol described previously by our group ([68]). Briefly, total CD4^+ T cells were isolated from PBMCs by negative magnetic selection using EasySep CD4^+ Human CD4^+ T Cell Enrichment kit ([…] Technologies). Following isolation, 1.5 × 10^6 CD4^+ T cells/ml were rested in complete RPMI 1640 for 5 to 8 hours before 12 hours of stimulation with PMA (100 ng/ml) and ionomycin (1 μg/ml) (both from Sigma-Aldrich). After stimulation, CD4^+ T cells were washed and resuspended in serum-free RPMI 1640. Cells were counted and serially diluted accordingly: 1.8 × 10^6 cells/ml, 9 × 10^5 cells/ml, 3 × 10^5 cells/ml, and 1 × 10^5 cells/m. […] In the preamplification reaction, 10 μl of the cell suspension from each dilution was dispensed into 24 to 48 wells of a 96-well plate containing 2 μl of one-step RT-PCR enzyme (Qiagen), 10 μl of 5× one-step RT-PCR buffer (Qiagen), 10 μl of Triton X-100 (0.3%), 0.25 μl of RNAsin (40 U/μl), 2 μl of dNTPs (10 mM each), 1 μl of tat1.4 forward primer (20 μM) and rev reverse primer (20 μM) (as published), and nuclease-free water to a final reaction volume of 50 μl. The one-step RT-PCR was run using the following thermocycling conditions: 50°C for 30 min, 95°C for 15 min, followed by 25 cycles of 95°C for 1 min, 55°C for 1 min, and 72°C for 2 min, and a final extension at 72°C for 5 min. After preamplification, 2 μl of the products was used as input for the real-time PCR to detect tat/rev MS HIV-1 RNA in a final reaction volume of 20 μl, which consisted of 5 μl of 4× TaqMan Fast Advanced Master mix (Thermo Fisher Scientific), 0.4 μl of tat2.0 forward primer, rev reverse primer (each at 20 μM), and MS tat/rev probe (5 μM). The real-time PCR was performed using the following program: 50°C for 5 min, 95°C for 20 s, followed by 45 cycles of 95°C for 3 s and 60°C for 30 s. Positive wells at each dilution were recorded and used to determine the frequency of cells expressing tat/rev MS HIV-1 RNA by the maximum likelihood method.

[3] = Clinical safety: adverse events (CTCAE version 4.0) and treatment adjustments; type: in vivo, human; settings: for Participants who stopped treatment: 14-day intervention, seven participants per arm
Procedure: Hematological parameters and kidney and liver function were monitored before treatment and on days 7, 14, and 42. At each study visit, participants were clinically assessed by the study physician and safety assessments were performed. All participant-reported AE and SAE were evaluated in relation to VPA and pyrimethamine. Severity was graded according to the Common Terminology Criteria for Adverse Events (CTCAE) version 4.0. In the study protocol, a number of stopping rules were defined including a prespecified interim analysis after the inclusion of 14 participants focusing on the number of participants discontinuing study medication during the intervention phase, CD4^+ T cell count <200 cells/μl, possibly drug-related SAE/AE ≥ grade 4, or AIDS-related illness (Centers for Disease Control category C events).

HIV-1 [4] = settings: for Plasma HIV-1 RNA in the participants not remaining below LOQ: entire 6-week trial period, two on VPA, one on pyrimethamine, one on combination; for Plasma HIV-1 RNA, Day 0, 6hr / Plasma HIV-1 RNA, Day 1 / Plasma HIV-1 RNA, Day 7 / Plasma HIV-1 RNA, Day 10 / Plasma HIV-1 RNA, Day 14 / Plasma HIV-1 RNA, Day 15 / Plasma HIV-1 RNA, Day 21 / Plasma HIV-1 RNA, Day 42 / Plasma HIV-1 RNA, Day 28 / Plasma HIV-1 RNA, Day 0, 0hr: individual participants, one value each, /N; for Plasma HIV-1 RNA, Day 0, 6hr / Plasma HIV-1 RNA, Day 1 / Plasma HIV-1 RNA, Day 7 / Plasma HIV-1 RNA, Day 10 / Plasma HIV-1 RNA, Day 14 / Plasma HIV-1 RNA, Day 15 / Plasma HIV-1 RNA, Day 21 / Plasma HIV-1 RNA, Day 42 / Plasma HIV-1 RNA, Day 28: /P suffix not kept; for Plasma HIV-1 RNA, Day 0, 0hr: pretreatment, /P suffix (genome not detected / detected below quantitation) not kept
Description: To achieve a constant and the earliest Tmax possible, participants received their first dose of the intervention regimen on day 0 in a fasted state. On day 0, cART and study medication intake were taken under direct supervision of the study staff. The 2-week intervention phase was followed by a 4-week post-intervention phase. Overall, participation involved 11 study visits. To obtain an additional post-intervention phase measurement for the inducible HIV-1 reservoir size, the study was amended and participants were asked to give written consent to an extra blood draw after the 4-week post-intervention phase ended. Plasma HIV-1 RNA levels (COBAS TaqMan; Roche, Basel, Switzerland; LOQ, 20 copies/ml) were monitored at all 11 visits. CD4^+ T cell counts were determined at screening, at the start and end of the intervention phase (days 0 and 14), at day 42, and at the post-intervention phase (≥day 42).

[5] = day 0, 6 hours after first dose relative to pretreatment, arm median
[6] = individual participants, one value each, listed as PYR

CCc1nc(N)nc(N)c1-c1ccc(Cl)cc1 [pyrimethamine]
Tmax [1]: approximately 4 hours
Fold-induction in B-ACTIN gene expression at Day 0, 6 hours relative to Day 0, pretreatment (BAF complex; control gene, individual participants, one value each, listed as PYR): 1.29 and 1.51 and 0.82 and 0.94 (2×) and 0.86 and 1.04
Median fold increase in CBX7 gene expression (BAF complex; [5]): 1.68 fold
Median fold increase in IL-10 gene expression (BAF complex; [5]): 2.55 fold
Median fold increase in SOCS3 gene expression (BAF complex; [5]): 2.53 fold
Fold-induction in CBX7 gene expression at Day 0, 6 hours relative to Day 0, pretreatment (BAF complex; [6]): 1.68 and 1.12 and 12.42 and 4.23 and 2.02 and 1.25 and 1.03
Fold-induction in IL-10 gene expression at Day 0, 6 hours relative to Day 0, pretreatment (BAF complex; [6]): 2.24 and 2.74 and 1.48 and 1.74 and 6.66 and 6.4 and 2.54
Fold-induction in SOCS3 gene expression at Day 0, 6 hours relative to Day 0, pretreatment (BAF complex; [6]): 2.52 and 2.27 and 0.60 and 4.59 and 5.35 and 1.14 and 3.27
Median inducible reservoir (TILDA) (HIV-1 [2]; after treatment (day 42)): 10.0 cells per million CD4+ T cells
Median inducible reservoir (TILDA) (HIV-1 [2]; before treatment (day 0)): 15.1 cells per million CD4+ T cells
Change in inducible reservoir size (HIV-1 [2]): do not indicate a significant change
TILDA reservoir, cells with multiply spliced HIV-RNA detectable per million CD4+ T-cells, >1year (HIV-1 [2]; listed as PYR): 19.3 per million CD4+ T-cells and 91.8 per million CD4+ T-cells and 13.9 per million CD4+ T-cells and 6.1 per million CD4+ T-cells and 22.2 per million CD4+ T-cells and 15.2 per million CD4+ T-cells
TILDA reservoir, cells with multiply spliced HIV-RNA detectable per million CD4+ T-cells, Day 42 (HIV-1 [2]; listed as PYR): 8.8 per million CD4+ T-cells and 122.8 per million CD4+ T-cells and 9.0 per million CD4+ T-cells and 1.6 per million CD4+ T-cells and 22.9 per million CD4+ T-cells
TILDA reservoir, cells with multiply spliced HIV-RNA detectable per million CD4+ T-cells, Day 0, 0 hour (HIV-1 [2]; listed as PYR): 2.7 per million CD4+ T-cells and 109.8 per million CD4+ T-cells and 16.9 per million CD4+ T-cells and 11.5 per million CD4+ T-cells and 15.1 per million CD4+ T-cells and 20.1 per million CD4+ T-cells and 2.8 per million CD4+ T-cells
Adverse events experienced on pyrimethamine (monotherapy and combination arms) of all AEs ([3]; 6-week study duration): 84 of 103
Grade 3 adverse events (number) ([3]; 6-week study duration): two
Participants who stopped treatment [3]: one
Induction of plasma viremia (HIV-1 [4]; day 1 time point): no evidence that pyrimethamine induced plasma viremia
Proportion of samples with plasma HIV-1 RNA above the assay detection limit (HIV-1 [4]; during the study at the fixed measurements, those with pyrimethamine exposure): 22.2%
Plasma HIV-1 RNA in the participants not remaining below LOQ (HIV-1 [4]): < 50 copies/ml
Plasma HIV-1 RNA, Day 0, 6hr (HIV-1 [4]): < 20
Plasma HIV-1 RNA, Day 1 (HIV-1 [4]): < 20
Plasma HIV-1 RNA, Day 7 (HIV-1 [4]): < 20
Plasma HIV-1 RNA, Day 10 (HIV-1 [4]): < 20
Plasma HIV-1 RNA, Day 14 (HIV-1 [4]): < 20
Plasma HIV-1 RNA, Day 15 (HIV-1 [4]): < 20
Plasma HIV-1 RNA, Day 21 (HIV-1 [4]): < 20
Plasma HIV-1 RNA, Day 42 (HIV-1 [4]): < 20
Plasma HIV-1 RNA, Day 28 (HIV-1 [4]; listed as PYR): < 20 (6×) and 20
Plasma HIV-1 RNA, Day 0, 0hr (HIV-1 [4]): < 20

CCCC(CCC)C(=O)O [valproic acid]
Tmax [1]: approximately 4 hours
mRNA levels of BAF target genes (IL-10, SOCS3, CBX7) (BAF complex; day 0, 6 hours after first dose relative to pretreatment): no increase
Change in inducible reservoir size (HIV-1 [2]): remained stable
TILDA reservoir, cells with multiply spliced HIV-RNA detectable per million CD4+ T-cells, >1year (HIV-1 [2]; listed as VPA): 2.5 per million CD4+ T-cells and 25.5 per million CD4+ T-cells and 286.2 per million CD4+ T-cells and 2.2 per million CD4+ T-cells and 19.0 per million CD4+ T-cells
TILDA reservoir, cells with multiply spliced HIV-RNA detectable per million CD4+ T-cells, Day 42 (HIV-1 [2]; listed as VPA): 26.0 per million CD4+ T-cells and 12.7 per million CD4+ T-cells and 1.2 per million CD4+ T-cells and 12.9 per million CD4+ T-cells
TILDA reservoir, cells with multiply spliced HIV-RNA detectable per million CD4+ T-cells, Day 0, 0 hour (HIV-1 [2]; listed as VPA): 12.5 per million CD4+ T-cells and 100.7 per million CD4+ T-cells and 326.5 per million CD4+ T-cells and 2.5 per million CD4+ T-cells and 17.1 per million CD4+ T-cells and 3.4 per million CD4+ T-cells
Participants who stopped treatment [3]: one
Plasma HIV-1 RNA in the participants not remaining below LOQ (HIV-1 [4]): < 50 copies/ml
Plasma HIV-1 RNA, Day 0, 6hr (HIV-1 [4]): < 20
Plasma HIV-1 RNA, Day 7 (HIV-1 [4]): < 20
Plasma HIV-1 RNA, Day 10 (HIV-1 [4]): < 20
Plasma HIV-1 RNA, Day 14 (HIV-1 [4]): < 20
Plasma HIV-1 RNA, Day 15 (HIV-1 [4]): < 20
Plasma HIV-1 RNA, Day 28 (HIV-1 [4]): < 20
Plasma HIV-1 RNA, Day 42 (HIV-1 [4]): < 20
Plasma HIV-1 RNA, Day 1 (HIV-1 [4]; listed as VPA): < 20 (6×) and 41
Plasma HIV-1 RNA, Day 21 (HIV-1 [4]; listed as VPA): < 20 (6×) and 21
Plasma HIV-1 RNA, Day 0, 0hr (HIV-1 [4]): < 20
